Patent US4997829A, “Penem compounds, and use thereof” (Suntory Limited, priority 1985, dated 1991)

How the values were obtained:
Assay in all cases: Minimum inhibitory concentration (MIC), agar plate dilution method
Type in all cases: cell-based
B. fragilis V-280-1 = details: Bacteroides fragilis, V2801; 10^6 CFU inoculated, 37° C., 18 hours
Procedure: (§1) With regard to the novel compounds obtained according to this invention and the compounds of Reference Examples, their minimum inhibitory concentrations (MIC) were determined by the agar plate dilution method in accordance with the MIC measuring standard method of The Chemotherapeutic Society of Japan, whereby 10^6 colony forming units were inoculated and the minimal concentration to inhibit the microbial growth after inclubation at 37° C. for 18 hours were determined, as shown as μg/ml in Table.

Ent. cloacae 963 = details: Enterobacter cloacae, 963; 10^6 CFU inoculated, 37° C., 18 hours
Procedure: as §1

M. luteus ATCC9341 = details: Micrococcus luteus, ATCC9341; 10^6 CFU inoculated, 37° C., 18 hours
Procedure: as §1

Pr. morganii IFO3848 = details: Morganella morganii, IFO3848; 10^6 CFU inoculated, 37° C., 18 hours
Procedure: as §1

Al. fecalis IFO13111 = details: 10^6 CFU inoculated, 37° C., 18 hours
Procedure: as §1

S. aureus FAD209P JC-1 = details: Staphylococcus aureus, FAD209PJC1; 10^6 CFU inoculated, 37° C., 18 hours
Procedure: as §1

Ser. marcescens IMA 1136 = details: Serratia marcescens, IMA1136; 10^6 CFU inoculated, 37° C., 18 hours
Procedure: as §1

E. coli NIHI JC-2 = details: Escherichia coli, NIHIJC2; 10^6 CFU inoculated, 37° C., 18 hours
Procedure: as §1

K. pneumoniae PC1602 = details: Klebsiella pneumoniae, PC1602; 10^6 CFU inoculated, 37° C., 18 hours
Procedure: as §1

B. fragilis GM7000 = details: Bacteroides fragilis, GM7000; 10^6 CFU inoculated, 37° C., 18 hours
Procedure: as §1

E. coli W3630/Rms213 = details: Escherichia coli, W3630/RMS213, 18 h, read-out: minimum inhibitory concentration (MIC)
Procedure: as §1

Pr. vulgaris GN7919 = details: Proteus vulgaris, GN7919; 10^6 CFU inoculated, 37° C., 18 hours
Procedure: as §1

F. varium ATCC8501 = details: Fusobacterium varium, ATCC8501; 10^6 CFU inoculated, 37° C., 18 hours
Procedure: as §1

E. coli W3630/Rms212 = details: Escherichia coli, W3630/RMS212, 18 h, read-out: minimum inhibitory concentration (MIC)
Procedure: as §1

C[C@@H](O)[C@H]1C(=O)N2C(C(=O)O)=C(C3COCCO3)S[C@H]12 (mixture of isomers) [SUN 4742, Potassium (1'R, 2"s, 5R, 6S and 1'R, 2"R, 5R, 6S)-6-(1'-hydroxyethyl)-2-(2"-paradioxanyl)penem-3-carboxylate]
MIC (B. fragilis V-280-1): 0.05 µg/mL
MIC (Ent. cloacae 963): 6.25 µg/mL
MIC (M. luteus ATCC9341): 0.1 µg/mL
MIC (Pr. morganii IFO3848): 6.25 µg/mL
MIC (Al. fecalis IFO13111): 0.78 µg/mL
MIC (S. aureus FAD209P JC-1): 0.05 µg/mL
MIC (Ser. marcescens IMA 1136): 6.25 µg/mL
MIC (E. coli NIHI JC-2): 1.56 µg/mL
MIC (K. pneumoniae PC1602): 0.1 µg/mL
MIC (B. fragilis GM7000): 0.05 µg/mL
MIC (E. coli W3630/Rms213): 0.78 µg/mL
MIC (Pr. vulgaris GN7919): 0.78 µg/mL
MIC (F. varium ATCC8501): 0.78 µg/mL
MIC (E. coli W3630/Rms212): 3.13 µg/mL

C[C@@H](O)[C@H]1C(=O)N2C(C(=O)O)=C(Cc3ccsc3)S[C@H]12 (relative stereo) [SUN 3514, Potassium (1'R, 5R, 6S and 1'S, 5S, 6R)-6-(1'-hydroxyethyl)-2-(3"-thiophenemethyl)penem-3-carboxylate, reference compound]
MIC (B. fragilis V-280-1): 0.39 µg/mL
MIC (Ent. cloacae 963): > 50 µg/mL
MIC (M. luteus ATCC9341): 0.2 µg/mL
MIC (Pr. morganii IFO3848): 8.13 µg/mL
MIC (Al. fecalis IFO13111): 0.39 µg/mL
MIC (S. aureus FAD209P JC-1): 0.05 µg/mL
MIC (Ser. marcescens IMA 1136): 50 µg/mL
MIC (E. coli NIHI JC-2): > 50 µg/mL
MIC (K. pneumoniae PC1602): 0.78 µg/mL
MIC (B. fragilis GM7000): 0.39 µg/mL
MIC (E. coli W3630/Rms213): 25 µg/mL
MIC (Pr. vulgaris GN7919): 6.25 µg/mL
MIC (F. varium ATCC8501): 0.39 µg/mL
MIC (E. coli W3630/Rms212): 50 µg/mL

CCSCC1=C(C(=O)O)N2C(=O)[C@H]([C@@H](C)O)[C@H]2S1 (relative stereo) [SUN 3515, Potassium (1'R, 5R, 6S and 1'S, 5S, 6R)-2-ethylmethylthio)-6-(1'-hydroxyethyl)-penem-3-carboxylate, reference compound]
MIC (B. fragilis V-280-1): 0.2 µg/mL
MIC (Ent. cloacae 963): 50 µg/mL
MIC (M. luteus ATCC9341): 0.2 µg/mL
MIC (Pr. morganii IFO3848): 3.13 µg/mL
MIC (Al. fecalis IFO13111): 0.78 µg/mL
MIC (S. aureus FAD209P JC-1): 0.1 µg/mL
MIC (Ser. marcescens IMA 1136): 25 µg/mL
MIC (E. coli NIHI JC-2): 25 µg/mL
MIC (K. pneumoniae PC1602): 0.78 µg/mL
MIC (B. fragilis GM7000): 0.1 µg/mL
MIC (E. coli W3630/Rms213): 12.5 µg/mL
MIC (Pr. vulgaris GN7919): 1.56 µg/mL
MIC (F. varium ATCC8501): 0.39 µg/mL
MIC (E. coli W3630/Rms212): 25 µg/mL

CCOCC1=C(C(=O)O)N2C(=O)[C@H]([C@@H](C)O)[C@H]2S1 (relative stereo) [SUN 3519, Potassium (1'R, 5R, 6S and 1's, 5S, 6R)-2-(ethoxymethyl)-6-(1'-hydroxyethyl)-penem-3-carboxylate, reference compound]
MIC (B. fragilis V-280-1): 0.1 µg/mL
MIC (Ent. cloacae 963): 12.5 µg/mL
MIC (M. luteus ATCC9341): 0.2 µg/mL
MIC (Pr. morganii IFO3848): 6.25 µg/mL
MIC (Al. fecalis IFO13111): 1.56 µg/mL
MIC (S. aureus FAD209P JC-1): 0.2 µg/mL
MIC (Ser. marcescens IMA 1136): 12.5 µg/mL
MIC (E. coli NIHI JC-2): 6.25 µg/mL
MIC (K. pneumoniae PC1602): 1.56 µg/mL
MIC (B. fragilis GM7000): 0.1 µg/mL
MIC (E. coli W3630/Rms213): 6.25 µg/mL
MIC (Pr. vulgaris GN7919): 1.56 µg/mL
MIC (F. varium ATCC8501): 0.39 µg/mL
MIC (E. coli W3630/Rms212): 6.25 µg/mL

COCC1=C(C(=O)O)N2C(=O)[C@H]([C@@H](C)O)[C@H]2S1 (relative stereo) [SUN 3585, Potassium (1'R, 5R, 6S and 1'S, 5S, 6R)-6-(1-hydroxyethyl)-2-(methoxymethyl)penem-3-carboxylate, reference compound]
MIC (B. fragilis V-280-1): 0.1 µg/mL
MIC (Ent. cloacae 963): 3.13 µg/mL
MIC (M. luteus ATCC9341): 0.1 µg/mL
MIC (Pr. morganii IFO3848): 6.25 µg/mL
MIC (Al. fecalis IFO13111): 1.56 µg/mL
MIC (S. aureus FAD209P JC-1): 0.1 µg/mL
MIC (Ser. marcescens IMA 1136): 3.13 µg/mL
MIC (E. coli NIHI JC-2): 0.78 µg/mL
MIC (K. pneumoniae PC1602): 0.78 µg/mL
MIC (B. fragilis GM7000): 0.05 µg/mL
MIC (E. coli W3630/Rms213): 0.78 µg/mL
MIC (Pr. vulgaris GN7919): 0.78 µg/mL
MIC (F. varium ATCC8501): 0.78 µg/mL
MIC (E. coli W3630/Rms212): 0.78 µg/mL

C[C@@H](O)[C@H]1C(=O)N2C(C(=O)O)=C(C3CCCO3)S[C@H]12 (relative stereo) [SUN 4068, potassium (1'R, 2"R, 5R, 6S and 1'R, 2"S, 5R, 6S and 1'S, 2"R, 5S, 6R and 1'S, 2"S, 5S, 6R)-6-(1'-hydroxyethyl)-2-(2"-tetrahydrofuranyl)penem-3-carboxylate]
MIC (B. fragilis V-280-1): 0.2 µg/mL
MIC (Ent. cloacae 963): 6.25 µg/mL
MIC (M. luteus ATCC9341): 0.1 µg/mL
MIC (Pr. morganii IFO3848): 3.13 µg/mL
MIC (Al. fecalis IFO13111): 1.56 µg/mL
MIC (S. aureus FAD209P JC-1): 0.1 µg/mL
MIC (Ser. marcescens IMA 1136): 6.25 µg/mL
MIC (E. coli NIHI JC-2): 1.56 µg/mL
MIC (K. pneumoniae PC1602): 0.39 µg/mL
MIC (B. fragilis GM7000): 0.05 µg/mL
MIC (E. coli W3630/Rms213): 3.13 µg/mL
MIC (Pr. vulgaris GN7919): 0.78 µg/mL
MIC (F. varium ATCC8501): 0.78 µg/mL
MIC (E. coli W3630/Rms212): 3.13 µg/mL

C[C@@H](O)[C@H]1C(=O)N2C(C(=O)O)=C([C@@H]3CCCO3)S[C@H]12 (relative stereo) [SUN 4118, potassium (1'R, 2"S, 5R, 6S and 1'S, 2"R, 5S, 6R)-6-(1'-hydroxyethyl)-2-(2"-tetrahydrofuranyl)penem-3-carboxylate]
MIC (B. fragilis V-280-1): 0.2 µg/mL
MIC (Ent. cloacae 963): 25 µg/mL
MIC (M. luteus ATCC9341): 0.05 µg/mL
MIC (Al. fecalis IFO13111): 1.56 µg/mL
MIC (S. aureus FAD209P JC-1): 0.1 µg/mL
MIC (Ser. marcescens IMA 1136): 25 µg/mL
MIC (E. coli W3630/Rms213): 12.5 µg/mL
MIC (Pr. vulgaris GN7919): 1.56 µg/mL
MIC (F. varium ATCC8501): 1.56 µg/mL
MIC (E. coli W3630/Rms212): 12.5 µg/mL

C[C@@H](O)[C@H]1C(=O)N2C(C(=O)O)=C(c3ccco3)S[C@H]12 (relative stereo) [SUN 4194, Potassium (1'R, 5R, 6S and 1',S, 5S, 6R)-2-(2"-furanyl)-6-(1'-hydroxyethyl)penem-3-carboxylate, reference compound]
MIC (B. fragilis V-280-1): 6.25 µg/mL
MIC (Ent. cloacae 963): 25 µg/mL
MIC (M. luteus ATCC9341): 0.2 µg/mL
MIC (Pr. morganii IFO3848): 12.5 µg/mL
MIC (Al. fecalis IFO13111): 6.25 µg/mL
MIC (S. aureus FAD209P JC-1): 0.39 µg/mL
MIC (Ser. marcescens IMA 1136): 25 µg/mL
MIC (E. coli NIHI JC-2): 25 µg/mL
MIC (K. pneumoniae PC1602): 3.13 µg/mL
MIC (B. fragilis GM7000): 0.39 µg/mL
MIC (E. coli W3630/Rms213): 25 µg/mL
MIC (Pr. vulgaris GN7919): 3.13 µg/mL
MIC (F. varium ATCC8501): 6.25 µg/mL
MIC (E. coli W3630/Rms212): 25 µg/mL

C[C@@H](O)[C@H]1C(=O)N2C(C(=O)O)=C([C@H]3CCC(=O)O3)S[C@H]12 [SUN 4374, Potassium (1'R, 2"R, 5R, 6S)-6-(1'-hydroxyethyl)-2[2"-(5"-oxo)oxolanyl]penem-3-carboxylate]
MIC (Ent. cloacae 963): 3.13 µg/mL
MIC (M. luteus ATCC9341): 0.1 µg/mL
MIC (Pr. morganii IFO3848): 3.13 µg/mL
MIC (Al. fecalis IFO13111): 1.56 µg/mL
MIC (S. aureus FAD209P JC-1): 0.1 µg/mL
MIC (Ser. marcescens IMA 1136): 3.13 µg/mL
MIC (E. coli NIHI JC-2): 1.56 µg/mL
MIC (K. pneumoniae PC1602): 0.39 µg/mL
MIC (E. coli W3630/Rms213): 0.78 µg/mL
MIC (Pr. vulgaris GN7919): 0.78 µg/mL
MIC (E. coli W3630/Rms212): 1.56 µg/mL

C[C@@H](O)[C@H]1C(=O)N2C(C(=O)O)=C([C@@H]3CCCO3)S[C@H]12 [SUN 4434, Potassium (1'R, 2"S, 5R, 6S)-6-(1'-hydroxyethyl)-2-(2"-tetrahydofuranyl)penem-3-carboxylate]
MIC (B. fragilis V-280-1): 0.2 µg/mL
MIC (Ent. cloacae 963): 12.5 µg/mL
MIC (M. luteus ATCC9341): < 0.025 µg/mL
MIC (Al. fecalis IFO13111): 3.13 µg/mL
MIC (S. aureus FAD209P JC-1): 0.05 µg/mL
MIC (Ser. marcescens IMA 1136): 25 µg/mL
MIC (E. coli W3630/Rms213): 6.25 µg/mL
MIC (Pr. vulgaris GN7919): 0.78 µg/mL
MIC (F. varium ATCC8501): 1.56 µg/mL
MIC (E. coli W3630/Rms212): 12.5 µg/mL
